Legend:
Androgen receptor = target: T1, Androgen receptor (Homo sapiens, UniProt P10275); assay: Androgen receptor In-Cell-Western assay (AR degradation in VCaP cells); format: cell-based; conditions: 24 hours treatment; for DC50: concentration for half the maximum degradation degree of AR in VCaP cells; for Dmax: maximum degradation degree of AR in VCaP cells
T1 construct: Dmax: a maximum degradation degree of AR in VCaP cells; endogenous in cells; host or cells: VCaP cells
T1 sequence (P10275 1-920): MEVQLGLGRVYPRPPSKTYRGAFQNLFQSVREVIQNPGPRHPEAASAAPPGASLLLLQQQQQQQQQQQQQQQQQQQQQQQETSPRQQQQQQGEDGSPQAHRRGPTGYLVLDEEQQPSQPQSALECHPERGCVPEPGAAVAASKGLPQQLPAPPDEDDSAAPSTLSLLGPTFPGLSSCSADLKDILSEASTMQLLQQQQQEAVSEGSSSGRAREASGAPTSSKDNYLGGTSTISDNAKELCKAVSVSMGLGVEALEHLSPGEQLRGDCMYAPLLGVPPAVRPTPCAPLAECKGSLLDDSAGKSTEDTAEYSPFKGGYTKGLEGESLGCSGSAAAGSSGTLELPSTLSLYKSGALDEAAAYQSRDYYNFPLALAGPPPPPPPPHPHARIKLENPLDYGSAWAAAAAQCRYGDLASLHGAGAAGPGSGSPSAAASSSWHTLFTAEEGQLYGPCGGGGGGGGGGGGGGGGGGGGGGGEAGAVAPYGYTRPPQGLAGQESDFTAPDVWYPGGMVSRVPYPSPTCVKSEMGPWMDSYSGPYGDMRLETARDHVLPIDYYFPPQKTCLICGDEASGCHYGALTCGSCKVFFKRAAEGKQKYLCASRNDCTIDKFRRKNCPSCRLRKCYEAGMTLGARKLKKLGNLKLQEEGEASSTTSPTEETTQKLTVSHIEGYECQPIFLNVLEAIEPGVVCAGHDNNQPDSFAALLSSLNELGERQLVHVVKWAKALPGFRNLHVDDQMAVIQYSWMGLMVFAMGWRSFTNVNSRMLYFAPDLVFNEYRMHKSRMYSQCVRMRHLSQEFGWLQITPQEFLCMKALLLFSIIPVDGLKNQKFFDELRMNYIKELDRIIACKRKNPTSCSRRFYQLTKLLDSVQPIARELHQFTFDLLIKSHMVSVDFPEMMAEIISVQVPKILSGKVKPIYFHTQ
Method: This assay evaluated compound performance in VCap cells. An intracellular androgen receptor was assayed by In-Cell-Western according to the assay procedure described below.
In a 96-well cell culture plate (Corning 3599) pretreated by poly-D-Lysin, Vcap cells were seeded to a Vcap cell assay medium [phenol red containing DMEM (Gibco Cat. No.: 11995065); fetal bovine serum FBS (Gibco Cat. No.: 10099141C)] at a volume of 100 μL/well and a cell density of 50,000 cells/well. Cells were cultured for at least two days. • 1. First, cells were treated with a compound. The compound was subjected to a gradient dilution by using DMSO and a cell culture medium, so that DMSO contained in the cell culture plate was diluted to 0.5%: a polypropylene plate was used according to the following protocol: • (1) (i) A 200× stock solution plate was prepared in DMSO; (ii) a 10 mM stock solution was diluted at 1:4 (10 μL stock solution+40 μL DMSO=2000 uM) with DMSO to enter row 2; (iii) a 1:4 (10 μL protac+40 μL DMSO) gradient dilution was performed from row 2 to row 9, row 1 was reserved for a 2000 uM reference compound and row 10 was reserved for DMSO. (iv) There were 8 concentrations (the final concentrations on the 200× plate was 2000 uM, 400 uM, 80 uM, etc.) in total. (2) (i) A 3× stock solution was prepared in the medium; (ii) 3 μL of the 200× stock solution was transferred to 197 μL of the medium (by a 12-channel pipette, from row 1 to row 10), i.e. a 3× stock solution plate. (iii) Uniform mixing was performed for the stock solution plate. (3) (i) The medium of Vcap cells was replaced with a fresh medium, with the medium volume of 100 μL. (ii) The uniformly-mixed 3× stock solution was transferred to the cell culture plate (by the 12-channel pipette, 50 μL of the stock solution was transferred from row 1 to row 10). (iii) The cells were cultured for 24 hours. • 2. The expression level of the intracellular androgen receptor after compound treatment was detected, and assay was performed according to the following method. • (1) (i) An equal volume of 8% paraformaldehyde was added to the cell culture plate for cell fixation. A fixative solution in the cell plate was discarded, and the cell plate was washed three times with PBS. (ii) A Triton solution was prepared (the stock solution was diluted at 1:1000). The solution in the cell plate was discarded, and a volume of 200 μL of a Triton diluent was added to each well. (iii) A 2× blocking solution was prepared (a 10× blocking stock solution was diluted at 1:4). The solution in the cell plate was discarded, and a volume of 100 μL of the 2× blocking solution was added to each well. (iv) A primary antibody solution (Androgen receptor Rabbit mAb, Cell Signaling Technology Cat. No.: 5153; 1:1000 dilution) was prepared. The solution in the cell plate was discarded, a volume of 100 μL of a primary antibody diluent was added to each well, and incubation was performed at 4 degrees overnight. (v) The primary antibody solution was discarded, and the cell plate was washed with 1× Wash buffer (Wash buffer in the present application means a washing buffer solution). (vi) A secondary antibody solution (Goat anti Rabbit IgG (H+L) Secondary Antibody, HRP, Thermo Cat. No.: 31460; 1:5000 dilution) was prepared, and a volume of 100 μL of a secondary antibody diluent was added to each well for incubation. (vii) The secondary antibody solution in the cell plate was discarded, and the cell plate was washed with 1× Wash buffer. (viii) A TMB chromogenic solution (BD Cat. No.: 550534) was prepared, and a volume of 100 μL of the chromogenic solution was added to each well. (ix) A volume of 50 μL of a stop solution (BD Cat. No.: 550534) was added to each well. (x) Absorption values at OD 450 nm and 570 nm were read by EnVision. (2) (i) Normalized analysis was performed for the number of cells in each well. The solution in the cell plate was discarded, and the cell plate was washed three times with wash buffer. […]

VCaP cells = assay: Inhibitory effect on VCaP cell proliferation (Cell Titer Glo); format: cell-based; conditions: Homo sapiens, 144 h; for IC50: VCaP cells, 5% FBS and 0.1 nM R1881, 6 days; for Emax: maximum degree of VCaP cell proliferation inhibition, 6 days
Method: A tumor cell line Vcap (ATCC Cat. No. CRL-2876) was respectively cultured with DMEM (Gibco Cat. No. 11965-092) medium containing 10% FBS (Gibco Cat. No. 10099-141C). During testing, Vcap cells were replaced with a DMEM culture fluid containing 5% FBS and 0.1 nM R1881 (Sigma Cat. No. R0908). The assay method was as follows:
Vcap cells were seeded to a 384-well plate (Perkin Elmer Cat. No. 6007460) at a cell density of 1200 cells/well and a volume of 20 μL/well; after the cells were incubated overnight in a carbon dioxide incubator (Thermo), the prepared compound solutions with different concentrations were added at a volume of 5 μL/well; meanwhile, a corresponding solvent was provided as a control; after the cells were continuously incubated in the incubator for 6 days, the cell plate and the contents thereof were equilibrated to room temperature; 25 μL of a Cell Titer Glor (Promega Cat. No. G7573) reagent was added to each well; after vibration and uniform mixing, incubation in the dark was performed for 10-30 minutes, and a signal value was detected with Envision microplate reader (PerkinElmer).
A percentage inhibition rate of compound-treated wells was calculated through solvent control wells on the plate, GraphPad prism was used to fit the percentage inhibition rate data corresponding to different concentrations, and IC50 value was calculated by a 4-parameter nonlinear logistic formula.
Emax: a maximum degree of VCaP cell proliferation inhibition. IC50: a compound concentration required to achieve half the maximum degree of VCaP cell proliferation inhibition.

| Compound | DC50 (Androgen receptor) | Dmax (Androgen receptor) | IC50 (VCaP cells) | Emax (VCaP cells) |
| --- | --- | --- | --- | --- |
| CC1(C)[C@H](NC(=O)c2ccc(N3CCC(CN4CCN(c5ccc6c(=O)n(C7CCC(=O)NC7=O)ncc6c5)CC4)CC3)cc2)C(C)(C)[C@H]1Oc1ccc(C#N)c(C(F)(F)F)c1 (some centres unmarked) [Compound 3] | 12 nM | 104% |  |  |
| CC1(C)[C@H](NC(=O)c2ccc(N3CCC(CN4CCN(c5ccc6c(=O)n(C7CCC(=O)NC7=O)ncc6c5)CC4)CC3)c(F)c2)C(C)(C)[C@H]1Oc1ccc(C#N)c(Cl)c1 (some centres unmarked) [Compound 5] | 8.4 nM | 105% | 37 nM | 62% |
| Cc1cc(O[C@H]2C(C)(C)[C@H](NC(=O)c3ccc(N4CCC(CN5CCN(c6ccc7c(=O)n(C8CCC(=O)NC8=O)ncc7c6)CC5)CC4)cc3)C2(C)C)ccc1C#N (some centres unmarked) [Compound 7] | 15 nM | 92% |  |  |
| CC1(C)C(NC(=O)c2ccc(N3CCC(CN4CCN(c5ccc6c(=O)n(C7CCC(=O)NC7=O)ncc6c5)CC4)CC3)nn2)C(C)(C)C1Oc1ccc(C#N)c(Cl)c1 (centres unmarked) [Compound 8] | 8.9 nM | 75% |  |  |
| CC1(C)[C@H](NC(=O)c2cnc(N3CCC(CN4CCN(c5ccc6c(=O)n(C7CCC(=O)NC7=O)ncc6c5)CC4)CC3)cn2)C(C)(C)[C@H]1Oc1ccc(C#N)c(Cl)c1 (some centres unmarked) [Compound 10] | 35 nM | 87% |  |  |
| CC1(C)[C@H](NC(=O)c2ccc(N3CCC(CN4CCN(c5ccc6cnn(C7CCC(=O)NC7=O)c(=O)c6c5)CC4)CC3)cc2)C(C)(C)[C@H]1Oc1ccc(C#N)c(Cl)c1 (some centres unmarked) [Compound 11] | 38 nM | 80% |  |  |
| N#Cc1ccc(O[C@H]2CC[C@H](NC(=O)c3ccc(N4CCC(CN5CCN(c6ccc7c(=O)n(C8CCC(=O)NC8=O)ncc7c6)CC5)CC4)cc3)CC2)cc1Cl (some centres unmarked) [Compound 13] | 9.6 nM | 94% |  |  |
| N#Cc1ccc(O[C@H]2CC[C@H](NC(=O)c3cnc(N4CCC(CN5CCN(c6ccc7c(=O)n(C8CCC(=O)NC8=O)ncc7c6)CC5)CC4)nc3)CC2)cc1Cl (some centres unmarked) [Compound 14] | 11 nM | 91% | 20 nM | 61% |
| N#Cc1ccc(O[C@H]2CC[C@H](NC(=O)c3ccc(N4CC(CN5CCN(c6ccc7c(=O)n(C8CCC(=O)NC8=O)ncc7c6)CC5)C4)cc3)CC2)cc1Cl (some centres unmarked) [Compound 15] | 16 nM | 84% |  |  |
| CC1(C)[C@H](NC(=O)c2ccc(N3CC(CN4CCN(c5ccc6c(=O)n(C7CCC(=O)NC7=O)ncc6c5)CC4)C3)cc2)C(C)(C)[C@H]1Oc1ccc(C#N)c(Cl)c1 (some centres unmarked) [Compound 20] |  |  | 42 nM | 60% |
| CC1(C)[C@H](NC(=O)c2cnc(N3CCCC(CN4CCN(c5ccc6c(=O)n(C7CCC(=O)NC7=O)ncc6c5)CC4)CC3)nc2)C(C)(C)[C@H]1Oc1ccc(C#N)c(Cl)c1 (some centres unmarked) [Compound 25] | 10 nM | 116% | 27 nM | 62% |

Now from value to molecule, other results behind:

| DC50 (Androgen receptor) | Dmax (Androgen receptor) | IC50 (VCaP cells) | Compound | Emax (VCaP cells) |
| --- | --- | --- | --- | --- |
| 5.3 nM | 114% | 11 nM | CC1(C)[C@H](NC(=O)c2cnc(N3CCC(CN4CCN(c5ccc6c(=O)n(C7CCC(=O)NC7=O)ncc6c5)CC4)CC3)nc2)C(C)(C)[C@H]1Oc1ccc(C#N)c(Cl)c1 (some centres unmarked) [Compound 2] | 60% |
| 6.8 nM | 98% | 33 nM | CC1(C)[C@H](NC(=O)c2ccc(N3CCC(CN4CCN(c5ccc6c(=O)n(C7CCC(=O)NC7=O)ncc6c5)CC4)CC3)nc2)C(C)(C)[C@H]1Oc1ccc(C#N)c(Cl)c1 (some centres unmarked) [Compound 4] | 69% |
| 5.7 nM | 92% |  | CC1(C)[C@H](NC(=O)c2ccc(N3CCC(CN4CCN(c5ccc6c(=O)n(C7CCC(=O)NC7=O)ncc6c5)CC4)C3)cc2)C(C)(C)[C@H]1Oc1ccc(C#N)c(Cl)c1 (some centres unmarked) [Compound 16] |  |
| 6.9 nM | 88% |  | CC1(C)[C@H](NC(=O)c2ccc(N3CCC(CN4CC5CC4CN5c4ccc5c(=O)n(C6CCC(=O)NC6=O)ncc5c4)CC3)cc2)C(C)(C)[C@H]1Oc1ccc(C#N)c(Cl)c1 (some centres unmarked) [Compound 17] |  |
| 6.9 nM | 98% | 20 nM | CC1(C)[C@H](NC(=O)c2cnc(N3CCC(CCN4CCN(c5ccc6c(=O)n(C7CCC(=O)NC7=O)ncc6c5)CC4)C3)nc2)C(C)(C)[C@H]1Oc1ccc(C#N)c(Cl)c1 (some centres unmarked) [Compound 23] | 56% |
| 6.8 nM | 106% | 18 nM | CC1(C)[C@H](NC(=O)c2cnc(N3CCC(CCN4CCN(c5ccc6c(=O)n(C7CCC(=O)NC7=O)ncc6c5)CC4)CC3)nc2)C(C)(C)[C@H]1Oc1ccc(C#N)c(Cl)c1 (some centres unmarked) [Compound 24] | 53% |
| 5.2 nM | 145% |  | CC1(C)[C@H](NC(=O)c2ccc(N3CCC(CN4CCN(c5ccc6c(=O)n(C7CCC(=O)NC7=O)nc(C(F)(F)F)c6c5)CC4)CC3)cc2)C(C)(C)[C@H]1Oc1ccc(C#N)c(Cl)c1 (some centres unmarked) [Compound 32] |  |
